Measurements taken from patent US20220220106A1, “QUINOLINE COMPOUNDS AND PHARMACEUTICAL COMPOSITIONS AND USES THEREOF” (Academy of Military Medical Sciences, priority 2019, published 2022).

Test: Water solubility in saturated aqueous solution (HPLC, one-point method)
Format: physicochemical
Settings: for Water solubility: deionized water, 25° C.
Protocol: By measuring the solubility of compound in a saturated aqueous solution, the water solubility of the compound was further investigated.
Preparation of Supersaturated Solution:
(1) About 1 mg of the compound to be tested was weighed and added to a 25 mL tube;
(2) 5 mL of deionized water was added, shaken well, placed in a vortex shaker and mixed for 30 seconds, then treated ultrasonically for 30 seconds;
(3) The tube was placed in a constant temperature water bath, and allowed to stand in a constant temperature water bath at 25° C. for 1 hour;
(4) The operation of (2) was repeated, and the standing at constant temperature of 25° C. was continued for 1 hour;
(5) The prepared supersaturated solution supernatant was taken out and placed in a centrifuge tube, centrifuged at 15000 rpm for 5 minutes, and the upper centrifugate was taken out for later use.
Liquid Chromatography Method:
(1) Chromatographic column: Agilent XDB Eclipse C18, 25 cm×4.6 mm×5 μm liquid chromatography column.
(2) Mobile phase: Phase A: water (0.1% trifluoroacetic acid); Phase B: acetonitrile.
(3) Flow rate: 1.0 mL/min.
(4) Sampling volume: 10 μl.
Preparation of standard solution: 1.0 mg of the sample to be tested was accurately weighed, added to a 10 mL volumetric flask, dissolved in methanol as solvent, metered to a constant volume of 10 mL, the concentration of solution was calculated, and it was used as a standard solution for later use.
By using the one-point method, the chromatographic peak area of the standard solution of the sample to be tested was determined, and then the peak area of the supersaturated compound was determined, and the solubility of the compound to be tested in water was calculated accordingly.

| SMILES | Water solubility | water solubility, in words |
| --- | --- | --- |
| CCC(=O)Nc1ccc(-c2ccc3ncc4ccc(=O)n(-c5cccc(C(F)(F)F)c5)c4c3c2)cn1 [HTL-6-45, 9-[3-(6-propionylamino)pyridyl]-2-oxo-1-[3-(trifluoromethyl)phenyl]-1,2-dihydrobenzo[h][1,6]naphthyridine] | 0.39 µg/mL |  |
| O=c1ccc2cnc3ccc(-c4cccnc4F)cc3c2n1-c1cccc(C(F)(F)F)c1 [HTL-6-48, 9-[3-(2-fluoro)pyridyl]-2-oxo-1-[3-(trifluoromethyl)phenyl]-1,2-dihydrobenzo [h][1,6]naphthyridine] | 5.88 µg/mL | relatively high water solubility |
| O=c1ccc2cnc3ccc(-c4ccc(F)nc4)cc3c2n1-c1cccc(C(F)(F)F)c1 [HTL-7-01, 9-[3-(6-fluoro)pyridyl]-2-oxo-1-[3-(trifluoromethyl)phenyl]-1,2-dihydrobenzo[h][1,6]naphthyridine] | 0.42 µg/mL |  |
| COc1ccc(-c2ccc3ncc4ccc(=O)n(-c5cccc(C(F)(F)F)c5)c4c3c2)cn1 [HTL-7-03, 9-[3-(6-methoxy)pyridyl]-2-oxo-1-[3-(trifluoromethyl)phenyl]-1,2-dihydrobenzo[h][1,6]naphthyridine] | 0.61 µg/mL |  |
| CN1CCN(c2ccc(-c3ccc4ncc5ccc(=O)n(-c6cccc(C(F)(F)F)c6)c5c4c3)cn2)CC1 [HTL-7-17, 9-{3-[6-(4-methylpiperazin-1-yl)pyridyl]}-2-oxo-1-[3-(trifluoromethyl)phenyl]-1,2-dihydrobenzo[h][1,6]naphthyridine] | 18.64 µg/mL | relatively high water solubility |
